# Data as given in patent publication US20050049309A1, “Regulation of HIF protein levels via deubiquitination pathway” (priority 2003, published 2005).
# Where a SMILES comes first, the peptide text is derived from it. [ ]: non-standard residue; d: D form. The star is where a group is joined. Nva = CCC[C@H](N)C(=O)O; Cbz = O=C(OCc1ccccc1)*
# How the values were obtained:
# [1] = tested on: deubiquitinase enzyme activity (HT-29 cell lysate) on polyubiquitinated HIF-1α; format: biochemical, human
# HIF-1α protein = settings: recent studies (literature); cited from earlier work
# [2] = cited from earlier work
# hypoxic cells = settings: cited from earlier work
# HIF-1α = format: cell-based, human
structure (smiles),measurement,setting,value
"CCC[C@@H](C=O)NC(=O)[C@H](CC(C)C)NC(=O)[C@H](CC(C)C)NC(=O)OCc1ccccc1 [LLnV, N-carbobenzoxy-Leu-Leu-norvalinal] (Cbz-Leu-Leu-[Nva]-aldehyde)",Deubiquitination of HIF-1α in vitro,[1],did not affect
"C=CCNC1=C2C[C@@H](C)C[C@H](OC)[C@H](O)[C@@H](C)/C=C(\C)[C@H](OC(N)=O)[C@@H](OC)/C=C\C=C(/C)C(=O)NC(=CC1=O)C2=O [17-AAG, 17-allylamino-17-desmethoxygeldanamycin]",HIF-1α protein in cell-lines lacking pVHL,HIF-1α protein,promote the loss of HIF-1α protein
O=C(O)CCCc1ccc(N(CCCl)OCCCl)cc1 [CHL-HD],In vivo toxicity,[2],minimal in vivo toxicity
same,Toxicity with reducing enzymes under hypoxia,hypoxic cells,greater toxicity
"C[C@@H]1C[C@@H]([C@H](O)CC2CC(=O)NC(=O)C2)C(=O)[C@@H](C)C1 [Cycloheximide, cycloheximide]",Ubiquitination of HIF-1α with proteasome inhibited,HIF-1α,no affect
